Data on 16 compounds can be found in US11236129B2, “IL-17A binding peptides and medical uses thereof” (Dompe' Farmaceutici S.P.A., priority 2018, dated 2022).

This test addresses IL-17RA/IL17RC dimerization induced by IL-17A (Homo sapiens, UniProt Q16552). The test can be described thus: IL-17RA/IL17RC dimerization assay in response to IL-17A (PathHunter Cytokine Receptor Assay). Type of test: cell-based. As to conditions: IL-17A at EC80; read-out: IC50 in IL-17RA/IL7RC dimerization assay. The essentials:
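PathHunter cells with IL-17RA and IL-17RC tagged for β-galactosidase complementation were preincubated 60 min with peptide (1% vehicle). IL-17A was then added at EC80 for 6–16 h at 37 °C, and chemiluminescence was read. Inhibition is relative to the EC80 and vehicle controls.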

Residues, ends and D or L forms follow the SMILES beside them. Some results are limits rather than exact numbers.

Chain of IL-17RA/IL17RC dimerization induced by IL-17A (Q16552 24-155): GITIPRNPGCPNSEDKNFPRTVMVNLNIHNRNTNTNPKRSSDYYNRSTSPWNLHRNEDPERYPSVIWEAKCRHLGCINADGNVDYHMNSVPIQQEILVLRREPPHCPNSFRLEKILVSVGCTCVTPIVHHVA

As for `CC[C@H](C)[C@H](NC(C)=O)C(=O)N[C@@H](Cc1c[nH]cn1)C(=O)N[C@H](C(=O)N[C@H](C(=O)N[C@H](C(=O)N1CCC[C@H]1C(=O)N[C@@H](C)C(=O)N[C@@H](CC(=O)O)C(=O)N[C@@H](CC(C)C)C(=O)N[C@@H](Cc1c[nH]c2ccccc12)C(=O)N[C@@H](CC(=O)O)C(=O)N[C@@H](Cc1c[nH]c2ccccc12)C(=O)NCC(=O)N[C@@H](CC(N)=O)C(=O)N[C@@H](CCCCN)C(N)=O)[C@@H](C)CC)[C@@H](C)O)C(C)C` [SEQ ID NO: 215] (Ac-IHVTIPADLWDWGNK-NH2), the IC50 is below 10 µM.

As for `CC[C@H](C)[C@H](NC(C)=O)C(=O)N[C@@H](Cc1c[nH]cn1)C(=O)N[C@H](C(=O)N[C@H](C(=O)N[C@H](C(=O)N1CCC[C@H]1C(=O)N[C@@H](C)C(=O)N[C@@H](CC(=O)O)C(=O)N[C@@H](CC(C)C)C(=O)N[C@@H](Cc1c[nH]c2ccccc12)C(=O)N[C@@H](CC(=O)O)C(=O)N[C@@H](Cc1c[nH]c2ccccc12)C(=O)N[C@@H](CC(C)C)C(=O)N[C@@H](CC(N)=O)C(=O)N[C@@H](CCCCN)C(N)=O)[C@@H](C)CC)[C@@H](C)O)C(C)C` [SEQ ID NO: 216] (Ac-IHVTIPADLWDWLNK-NH2), the IC50 was below 10 µM.

As for `CC[C@H](C)[C@H](NC(C)=O)C(=O)N[C@@H](Cc1c[nH]cn1)C(=O)N[C@H](C(=O)N[C@H](C(=O)N[C@H](C(=O)N1CCC[C@H]1C(=O)N[C@@H](C)C(=O)N[C@@H](CC(=O)O)C(=O)N[C@@H](CC(C)C)C(=O)N[C@@H](Cc1c[nH]c2ccccc12)C(=O)N[C@@H](CC(=O)O)C(=O)N[C@@H](Cc1c[nH]c2ccccc12)C(=O)N1CCC[C@H]1C(=O)N[C@@H](CC(N)=O)C(=O)N[C@@H](CCCCN)C(N)=O)[C@@H](C)CC)[C@@H](C)O)C(C)C` [SEQ ID NO: 217] (Ac-IHVTIPADLWDWPNK-NH2), the IC50 is below 10 µM.

Regarding `CC[C@H](C)[C@H](NC(C)=O)C(=O)N[C@@H](Cc1c[nH]cn1)C(=O)N[C@H](C(=O)N[C@H](C(=O)N[C@H](C(=O)N1CCC[C@H]1C(=O)N[C@@H](C)C(=O)N[C@@H](CC(=O)O)C(=O)N[C@@H](CC(C)C)C(=O)N[C@@H](Cc1c[nH]c2ccccc12)C(=O)N[C@@H](CC(=O)O)C(=O)N[C@@H](Cc1c[nH]c2ccccc12)C(=O)N[C@@H](Cc1ccccc1)C(=O)N[C@@H](CC(N)=O)C(=O)N[C@@H](CCCCN)C(N)=O)[C@@H](C)CC)[C@@H](C)O)C(C)C` [SEQ ID NO: 218] (Ac-IHVTIPADLWDWFNK-NH2), the IC50 is below 10 µM.

For `CC[C@H](C)[C@H](NC(C)=O)C(=O)N[C@@H](Cc1c[nH]cn1)C(=O)N[C@H](C(=O)N[C@H](C(=O)N[C@H](C(=O)N1CCC[C@H]1C(=O)N[C@@H](C)C(=O)N[C@@H](CC(=O)O)C(=O)N[C@@H](CC(C)C)C(=O)N[C@@H](Cc1c[nH]c2ccccc12)C(=O)N[C@@H](CC(=O)O)C(=O)N[C@@H](Cc1c[nH]c2ccccc12)C(=O)N[C@@H](Cc1ccc(O)cc1)C(=O)N[C@@H](CC(N)=O)C(=O)N[C@@H](CCCCN)C(N)=O)[C@@H](C)CC)[C@@H](C)O)C(C)C` [SEQ ID NO: 219] (Ac-IHVTIPADLWDWYNK-NH2), the IC50 is below 10 µM.

Regarding `CC[C@H](C)[C@H](NC(C)=O)C(=O)N[C@@H](Cc1c[nH]cn1)C(=O)N[C@H](C(=O)N[C@H](C(=O)N[C@H](C(=O)N1CCC[C@H]1C(=O)N[C@@H](C)C(=O)N[C@@H](CC(=O)O)C(=O)N[C@@H](CC(C)C)C(=O)N[C@@H](Cc1c[nH]c2ccccc12)C(=O)N[C@@H](CC(=O)O)C(=O)N[C@@H](Cc1c[nH]c2ccccc12)C(=O)N[C@H](C(=O)N[C@@H](CCC(N)=O)C(=O)N[C@@H](CCCCN)C(N)=O)[C@@H](C)CC)[C@@H](C)CC)[C@@H](C)O)C(C)C` [SEQ ID NO: 220] (Ac-IHVTIPADLWDWIQK-NH2), the IC50 is below 10 µM.

Consider `CC[C@H](C)[C@H](NC(C)=O)C(=O)N[C@@H](Cc1c[nH]cn1)C(=O)N[C@H](C(=O)N[C@H](C(=O)N[C@H](C(=O)N1CCC[C@H]1C(=O)N[C@@H](C)C(=O)N[C@@H](CC(=O)O)C(=O)N[C@@H](CC(C)C)C(=O)N[C@@H](Cc1c[nH]c2ccccc12)C(=O)N[C@@H](CC(=O)O)C(=O)N[C@@H](Cc1c[nH]c2ccccc12)C(=O)N[C@H](C(=O)N[C@@H](CC(=O)O)C(=O)N[C@@H](CCCCN)C(N)=O)[C@@H](C)CC)[C@@H](C)CC)[C@@H](C)O)C(C)C` [SEQ ID NO: 221] (Ac-IHVTIPADLWDWIDK-NH2), for which the IC50 was below 10 µM.

Regarding `CC[C@H](C)[C@H](NC(C)=O)C(=O)N[C@@H](Cc1c[nH]cn1)C(=O)N[C@H](C(=O)N[C@H](C(=O)N[C@H](C(=O)N1CCC[C@H]1C(=O)N[C@@H](C)C(=O)N[C@@H](CC(=O)O)C(=O)N[C@@H](CC(C)C)C(=O)N[C@@H](Cc1c[nH]c2ccccc12)C(=O)N[C@@H](CC(=O)O)C(=O)N[C@@H](Cc1c[nH]c2ccccc12)C(=O)N[C@H](C(=O)N[C@@H](CC(N)=O)C(=O)N[C@@H](Cc1c[nH]cn1)C(N)=O)[C@@H](C)CC)[C@@H](C)CC)[C@@H](C)O)C(C)C` [SEQ ID NO: 222] (Ac-IHVTIPADLWDWINH-NH2), the IC50 was below 10 µM.

On to `CC[C@H](C)[C@H](NC(C)=O)C(=O)N[C@@H](Cc1c[nH]cn1)C(=O)N[C@H](C(=O)N[C@H](C(=O)N[C@H](C(=O)N1CCC[C@H]1C(=O)N[C@@H](C)C(=O)N[C@@H](CC(=O)O)C(=O)N[C@@H](CC(C)C)C(=O)N[C@@H](Cc1c[nH]c2ccccc12)C(=O)N[C@@H](CC(=O)O)C(=O)N[C@@H](Cc1c[nH]c2ccccc12)C(=O)N[C@H](C(=O)N[C@@H](CC(N)=O)C(=O)N[C@@H](CC(=O)O)C(N)=O)[C@@H](C)CC)[C@@H](C)CC)[C@@H](C)O)C(C)C` [SEQ ID NO: 223] (Ac-IHVTIPADLWDWIND-NH2), for which the IC50 is below 10 µM.

For `CC(=O)N[C@H](C(=O)N[C@@H](Cc1c[nH]cn1)C(=O)N[C@H](C(=O)N[C@H](C(=O)N[C@H](C(=O)N1CCC[C@H]1C(=O)N[C@@H](CCC(N)=O)C(=O)N[C@@H](CCC(=O)O)C(=O)N[C@@H](CC(C)C)C(=O)N[C@@H](Cc1c[nH]c2ccccc12)C(=O)N[C@@H](CCC(=O)O)C(=O)N[C@@H](Cc1c[nH]c2ccccc12)C(=O)N[C@H](C(=O)N[C@@H](CCCNC(=N)N)C(=O)N[C@@H](CCCNC(=N)N)C(N)=O)C(C)C)C(C)C)[C@@H](C)O)C(C)C)C(C)C` [SEQ ID NO: 224] (Ac-VHVTVPQELWEWVRR-NH2), the IC50 is below 10 µM.

Take `CC(=O)N[C@H](C(=O)N[C@@H](Cc1c[nH]cn1)C(=O)N[C@H](C(=O)N[C@H](C(=O)N[C@H](C(=O)N1CCC[C@H]1C(=O)N[C@@H](CCC(N)=O)C(=O)N[C@@H](CCC(=O)O)C(=O)N[C@@H](CC(C)C)C(=O)N[C@@H](Cc1ccccc1)C(=O)N[C@@H](CCC(=O)O)C(=O)N[C@@H](Cc1c[nH]c2ccccc12)C(=O)N[C@H](C(=O)N[C@@H](CCCNC(=N)N)C(=O)N[C@@H](CCCNC(=N)N)C(N)=O)C(C)C)C(C)C)[C@@H](C)O)C(C)C)C(C)C` [SEQ ID NO: 225] (Ac-VHVTVPQELFEWVRR-NH2): the IC50 is below 10 µM.

With `CC(=O)N[C@H](C(=O)N[C@@H](Cc1c[nH]cn1)C(=O)N[C@H](C(=O)N[C@H](C(=O)N[C@H](C(=O)N1CCC[C@H]1C(=O)N[C@@H](CCC(N)=O)C(=O)N[C@@H](CCC(=O)O)C(=O)N[C@@H](CC(C)C)C(=O)N[C@@H](Cc1ccc(O)cc1)C(=O)N[C@@H](CCC(=O)O)C(=O)N[C@@H](Cc1c[nH]c2ccccc12)C(=O)N[C@H](C(=O)N[C@@H](CCCNC(=N)N)C(=O)N[C@@H](CCCNC(=N)N)C(N)=O)C(C)C)C(C)C)[C@@H](C)O)C(C)C)C(C)C` [SEQ ID NO: 226] (Ac-VHVTVPQELYEWVRR-NH2), the IC50 was below 10 µM.

For the compound `CC(=O)N[C@H](C(=O)N[C@@H](Cc1c[nH]cn1)C(=O)N[C@H](C(=O)N[C@H](C(=O)N[C@H](C(=O)N1CCC[C@H]1C(=O)N[C@@H](CCC(N)=O)C(=O)N[C@@H](CCC(=O)O)C(=O)N[C@@H](CC(C)C)C(=O)N[C@@H](Cc1c[nH]c2ccccc12)C(=O)N[C@@H](CCC(=O)O)C(=O)N[C@@H](Cc1c[nH]c2ccccc12)C(=O)N[C@H](C(=O)N[C@@H](CCC(=O)O)C(=O)N[C@@H](CCC(=O)O)C(N)=O)C(C)C)C(C)C)[C@@H](C)O)C(C)C)C(C)C` [SEQ ID NO: 227] (Ac-VHVTVPQELWEWVEE-NH2), the IC50 is below 10 µM.

For the compound `CC(=O)N[C@H](C(=O)N[C@@H](Cc1c[nH]cn1)C(=O)N[C@H](C(=O)N[C@H](C(=O)N[C@H](C(=O)N1CCC[C@H]1C(=O)N[C@@H](CCC(N)=O)C(=O)N[C@@H](CCC(=O)O)C(=O)N[C@@H](CC(C)C)C(=O)N[C@@H](Cc1ccccc1)C(=O)N[C@@H](CCC(=O)O)C(=O)N[C@@H](Cc1c[nH]c2ccccc12)C(=O)N[C@H](C(=O)N[C@@H](CCC(=O)O)C(=O)N[C@@H](CCC(=O)O)C(N)=O)C(C)C)C(C)C)[C@@H](C)O)C(C)C)C(C)C` [SEQ ID NO: 228] (Ac-VHVTVPQELFEWVEE-NH2), the IC50 is below 10 µM.

Turning to `CC(=O)N[C@H](C(=O)N[C@@H](Cc1c[nH]cn1)C(=O)N[C@H](C(=O)N[C@H](C(=O)N[C@H](C(=O)N1CCC[C@H]1C(=O)N[C@@H](CCC(N)=O)C(=O)N[C@@H](CCC(=O)O)C(=O)N[C@@H](CC(C)C)C(=O)N[C@@H](Cc1ccc(O)cc1)C(=O)N[C@@H](CCC(=O)O)C(=O)N[C@@H](Cc1c[nH]c2ccccc12)C(=O)N[C@H](C(=O)N[C@@H](CCC(=O)O)C(=O)N[C@@H](CCC(=O)O)C(N)=O)C(C)C)C(C)C)[C@@H](C)O)C(C)C)C(C)C` [SEQ ID NO: 229] (Ac-VHVTVPQELYEWVEE-NH2), the IC50 was below 10 µM.

In the case of `CC[C@H](C)[C@H](NC(=O)[C@H](CO)NC(=O)[C@@H](NC(=O)[C@H](Cc1c[nH]cn1)NC(=O)[C@@H](NC(C)=O)C(C)C)C(C)C)C(=O)N1CCC[C@H]1C(=O)N[C@@H](CCC(N)=O)C(=O)N[C@@H](CCC(=O)O)C(=O)N[C@@H](CC(C)C)C(=O)N[C@@H](Cc1c[nH]c2ccccc12)C(=O)N[C@@H](CCC(=O)O)C(=O)N[C@@H](Cc1c[nH]c2ccccc12)C(=O)N[C@H](C(=O)N[C@@H](CCCNC(=N)N)C(=O)N[C@@H](CCCNC(=N)N)C(N)=O)C(C)C` [SEQ ID NO: 230] (Ac-VHVSIPQELWEWVRR-NH2), the IC50 was below 10 µM.
